The text below walks through data of ChEMBL document CHEMBL5537181 (J Med Chem, 2024).

One test relates to Rattus norvegicus. Put plainly: Analgesic activity in Chronic constriction injury rat model assessed as decrease in hyperalgesia at 300 microg/kg,IM administrated every 2 hrs and measured after 24 hrs. Format: functional, organism-based. The settings on record: dose 300.0 µg/kg.
The target of test [1] is Neuronal acetylcholine receptor; alpha9/alpha10 (Homo sapiens, UniProt Q9GZZ6+Q9UGM1). As to the kind of experiment: Antagonist activity at human alpha9alpha10 nAChR expressed in acetylcholine-induced Xenopus laevis oocytes assessed as inhibition of acetylcholine-induced current by two electrode voltage-clamp assay. Format: cell-based, Oocyte. On the technique in general: Two-electrode voltage clamp is typically applied to oocytes expressing channels or transporters.
Sequence of Neuronal acetylcholine receptor; alpha9/alpha10 (Q9UGM1 whole entry): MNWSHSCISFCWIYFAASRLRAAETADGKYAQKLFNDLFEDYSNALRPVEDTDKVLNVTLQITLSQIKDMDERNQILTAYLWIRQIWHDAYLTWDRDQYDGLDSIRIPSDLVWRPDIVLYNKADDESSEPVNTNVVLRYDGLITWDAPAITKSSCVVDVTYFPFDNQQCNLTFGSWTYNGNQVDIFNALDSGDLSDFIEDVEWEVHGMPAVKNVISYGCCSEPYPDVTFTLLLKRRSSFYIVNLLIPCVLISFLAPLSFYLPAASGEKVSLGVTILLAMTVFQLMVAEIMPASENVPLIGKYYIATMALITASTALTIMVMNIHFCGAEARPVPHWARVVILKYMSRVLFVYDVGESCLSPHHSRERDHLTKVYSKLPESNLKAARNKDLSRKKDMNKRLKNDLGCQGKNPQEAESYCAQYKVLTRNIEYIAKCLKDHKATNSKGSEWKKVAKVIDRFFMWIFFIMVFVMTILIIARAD
Sequence of Neuronal acetylcholine receptor; alpha9/alpha10 (Q9GZZ6 whole entry): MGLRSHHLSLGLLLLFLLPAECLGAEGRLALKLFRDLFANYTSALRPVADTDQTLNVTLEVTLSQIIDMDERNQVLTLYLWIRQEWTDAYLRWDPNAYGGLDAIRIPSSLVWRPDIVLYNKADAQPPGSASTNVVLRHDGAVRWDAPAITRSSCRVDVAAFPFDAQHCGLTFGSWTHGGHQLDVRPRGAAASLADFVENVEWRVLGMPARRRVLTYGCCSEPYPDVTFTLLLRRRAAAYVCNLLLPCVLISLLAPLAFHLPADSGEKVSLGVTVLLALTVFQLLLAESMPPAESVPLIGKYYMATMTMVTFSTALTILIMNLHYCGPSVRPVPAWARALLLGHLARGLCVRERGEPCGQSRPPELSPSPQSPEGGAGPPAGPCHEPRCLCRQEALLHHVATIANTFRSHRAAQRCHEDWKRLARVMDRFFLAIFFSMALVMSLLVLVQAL

Test [2] concerns the target Voltage-dependent N-type calcium channel subunit alpha-1B (Homo sapiens, UniProt Q00975). Put plainly: Inhibition of human Cav2.2 channel transfected in HEK293T cells co-expressed with human GABAB receptor assessed as inhibition of Cav2.2-mediated Ba2+ current measured for 3 to 5 days by whole-cell patch clamp assay. Format: cell-based. (The patch-clamp technique gives a direct electrical read-out from membranes.)

Active and inactive are the calls of the source. The rule behind the calls is not given here.

Sequence of Voltage-dependent N-type calcium channel subunit alpha-1B (Q00975 whole entry): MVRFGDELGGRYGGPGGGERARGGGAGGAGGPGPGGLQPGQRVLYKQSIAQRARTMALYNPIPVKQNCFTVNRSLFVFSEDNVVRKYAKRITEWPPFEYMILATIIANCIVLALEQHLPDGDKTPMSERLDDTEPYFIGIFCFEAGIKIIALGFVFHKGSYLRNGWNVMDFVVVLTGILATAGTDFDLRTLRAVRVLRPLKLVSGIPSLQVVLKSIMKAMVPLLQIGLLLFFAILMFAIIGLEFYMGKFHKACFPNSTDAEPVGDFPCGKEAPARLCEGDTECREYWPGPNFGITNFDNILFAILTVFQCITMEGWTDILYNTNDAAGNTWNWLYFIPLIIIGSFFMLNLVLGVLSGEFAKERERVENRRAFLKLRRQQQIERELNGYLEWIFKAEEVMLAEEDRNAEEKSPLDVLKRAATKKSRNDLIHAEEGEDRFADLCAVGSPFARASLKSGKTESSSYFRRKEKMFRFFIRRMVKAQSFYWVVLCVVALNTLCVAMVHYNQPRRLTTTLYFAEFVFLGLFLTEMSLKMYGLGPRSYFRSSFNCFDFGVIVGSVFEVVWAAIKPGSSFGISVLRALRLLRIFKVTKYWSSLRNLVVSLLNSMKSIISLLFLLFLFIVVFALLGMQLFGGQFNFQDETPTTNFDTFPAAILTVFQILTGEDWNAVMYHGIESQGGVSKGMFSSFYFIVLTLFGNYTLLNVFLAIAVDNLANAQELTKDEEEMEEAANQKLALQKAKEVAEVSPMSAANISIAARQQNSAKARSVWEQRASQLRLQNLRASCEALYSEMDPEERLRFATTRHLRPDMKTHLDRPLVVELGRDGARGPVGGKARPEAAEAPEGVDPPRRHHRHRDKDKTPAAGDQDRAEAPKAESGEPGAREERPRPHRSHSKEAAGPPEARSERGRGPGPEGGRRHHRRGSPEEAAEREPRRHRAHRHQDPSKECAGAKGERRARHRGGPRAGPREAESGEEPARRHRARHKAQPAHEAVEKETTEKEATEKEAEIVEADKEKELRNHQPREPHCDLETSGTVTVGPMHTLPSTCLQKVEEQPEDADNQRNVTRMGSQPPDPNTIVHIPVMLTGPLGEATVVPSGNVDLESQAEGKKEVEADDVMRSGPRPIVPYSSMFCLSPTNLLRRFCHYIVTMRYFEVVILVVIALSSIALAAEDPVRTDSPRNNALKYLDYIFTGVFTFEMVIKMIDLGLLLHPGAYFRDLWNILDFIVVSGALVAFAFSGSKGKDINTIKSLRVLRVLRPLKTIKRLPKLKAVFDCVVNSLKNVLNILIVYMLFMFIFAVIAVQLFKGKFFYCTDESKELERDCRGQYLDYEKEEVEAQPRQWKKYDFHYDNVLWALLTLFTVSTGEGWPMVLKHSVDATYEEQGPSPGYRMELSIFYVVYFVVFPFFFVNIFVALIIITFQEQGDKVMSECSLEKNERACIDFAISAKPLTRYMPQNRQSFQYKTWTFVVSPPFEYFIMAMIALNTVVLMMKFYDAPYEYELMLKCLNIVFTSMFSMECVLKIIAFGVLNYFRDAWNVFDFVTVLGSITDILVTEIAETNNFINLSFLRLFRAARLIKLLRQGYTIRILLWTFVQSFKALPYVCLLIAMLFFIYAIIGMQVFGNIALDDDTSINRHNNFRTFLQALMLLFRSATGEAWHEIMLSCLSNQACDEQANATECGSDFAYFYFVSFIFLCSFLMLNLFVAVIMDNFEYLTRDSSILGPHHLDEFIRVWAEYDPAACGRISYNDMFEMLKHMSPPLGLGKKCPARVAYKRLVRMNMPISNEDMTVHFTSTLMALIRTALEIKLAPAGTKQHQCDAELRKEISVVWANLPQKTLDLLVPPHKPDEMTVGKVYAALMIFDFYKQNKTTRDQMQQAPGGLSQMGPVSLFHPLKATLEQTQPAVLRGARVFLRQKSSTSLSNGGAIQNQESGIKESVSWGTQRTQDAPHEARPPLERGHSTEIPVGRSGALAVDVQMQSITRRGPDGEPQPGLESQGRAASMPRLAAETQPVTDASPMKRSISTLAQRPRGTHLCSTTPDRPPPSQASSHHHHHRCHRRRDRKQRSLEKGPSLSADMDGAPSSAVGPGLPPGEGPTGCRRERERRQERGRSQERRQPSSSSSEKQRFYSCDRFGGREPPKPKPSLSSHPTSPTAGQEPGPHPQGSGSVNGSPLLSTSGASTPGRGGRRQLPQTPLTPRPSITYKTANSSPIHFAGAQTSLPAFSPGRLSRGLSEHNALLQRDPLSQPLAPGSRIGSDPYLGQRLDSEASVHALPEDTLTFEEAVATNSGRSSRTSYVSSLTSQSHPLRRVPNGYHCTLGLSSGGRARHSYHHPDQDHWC

As for `C[C@@H](O)[C@@H]1NC(=O)[C@@H]2CSSC[C@@H](C(=O)N[C@@H](Cc3ccc(O)cc3)C(=O)O)NC(=O)[C@H](CCC(N)=O)NC(=O)[C@H](Cc3ccc(O)c(I)c3)NC(=O)[C@H](CCCNC(=N)N)NC(=O)[C@H](CSSC[C@H](NC(=O)CN)C(=O)N2)NC(=O)[C@H](CCCNC(N)=O)NC(=O)[C@@H]2CCCN2C(=O)[C@H](CC(=O)O)NC1=O`, in the test with Rattus norvegicus, the result was Active.

`CC[C@H](C)[C@@H]1NC(=O)[C@H](CCCNC(=N)N)NC(=O)[C@H](CCCNC(=N)N)NC(=O)[C@@H]2CSSC[C@H](NC(=O)[C@H](N)[C@H](C)O)C(=O)N[C@@H](CCCNC(=N)N)C(=O)N[C@@H](CO)C(=O)N[C@@H](CO)C(=O)NCC(=O)N[C@@H](CCCNC(=N)N)C(=O)N[C@@H](Cc3ccc(O)cc3)C(=O)N[C@H](CSSC[C@H](C(=O)N[C@H](C(N)=O)C(C)C)NC(=O)[C@H](C)NC(=O)[C@H](CC(=O)O)NC(=O)[C@H]([C@@H](C)O)NC1=O)C(=O)N[C@@H](CCCNC(=N)N)C(=O)N[C@@H](CO)C(=O)N1CCC[C@H]1C(=O)N[C@@H](Cc1ccc(O)cc1)C(=O)N[C@@H](CC(=O)O)C(=O)N[C@@H](CCCNC(=N)N)C(=O)N[C@@H](CCCNC(=N)N)C(=O)N[C@@H](CCCNC(=N)N)C(=O)N[C@@H](CCCNC(=N)N)C(=O)N[C@@H](Cc1ccc(O)cc1)C(=O)N2`: the IC50 (commonly the point on the concentration scale where inhibition reaches its midpoint) in test [1] was determined as 116 nM; in test [2] it was 3 nM.
